# Columns and labels:
# [1] = Part B: safety and tolerability (adverse events, CTCAE v4.0) of AZD5363 tablet, fasted versus fed; type: in vivo, human
# Description: Patients had been fasting overnight prior to the breakfast and no further food was permitted for 4 h post-dose.
# Safety assessments throughout the study encompassed the incidence and severity of AEs (graded according to Common Terminology Criteria for Adverse Events [CTCAE] version 4.0), in addition to laboratory parameters (haematology, clinical chemistry, urinalysis), physical examination, 12-lead electrocardiography (ECG), and vital signs. To assess safety in the fed versus fasted state, the period during and just after the fasted day was considered relevant to the fasted dose (Days 4–7), and similarly, the fed day and subsequent days were considered relevant to the fed state (Days 11–14). Any AE occurring after the first dose of study treatment and up to 28 days after the last dose of study treatment was included in the AE summaries.
# The safety analysis set comprised all patients who received at least one dose of AZD5363. All safety data are presented descriptively.
# [2] = design: method as in PMID 29066505; settings: cited from earlier work
# [3] = tablet, Days 4–7, fasted dose, N = 12
# [4] = tablet, Days 11–14, fed dose, N = 10
substance,measurement,setting,value
"4-amino-N-[(1S)-1-(4-chlorophenyl)-3-hydroxypropyl]-1-(7H-pyrrolo[2,3-d]pyrimidin-4-yl)piperidine-4-carboxamide [AZD5363]","Any AE (causally related), All",[1]; [3],4 (33.3) Number of patients (%)
same,"Any AE (causally related), Grade ≥ 3",[1]; [3],2 (16.7) Number of patients (%)
same,"Any AE (irrespective of causality), All",[1]; [3],5 (41.7) Number of patients (%)
same,"Any AE (irrespective of causality), Grade ≥ 3",[1]; [3],2 (16.7) Number of patients (%)
same,"Diarrhoea, All",[1]; [3],2 (16.7) Number of patients (%)
same,"Diarrhoea, Grade ≥ 3",[1]; [3],1 (8.3) Number of patients (%)
same,"Hyperglycaemia, All",[1]; [3],1 (8.3) Number of patients (%)
same,"Hyperglycaemia, Grade ≥ 3",[1]; [3],1 (8.3) Number of patients (%)
same,"Hypokalaemia, All",[1]; [3],0 Number of patients (%)
same,"Hypokalaemia, Grade ≥ 3",[1]; [3],0 Number of patients (%)
same,"Pneumonia, All",[1]; [3],0 Number of patients (%)
same,"Pneumonia, Grade ≥ 3",[1]; [3],0 Number of patients (%)
same,"Rash macular, All",[1]; [3],0 Number of patients (%)
same,"Rash macular, Grade ≥ 3",[1]; [3],0 Number of patients (%)
same,"Rash maculopapular, All",[1]; [3],1 (8.3) Number of patients (%)
same,"Rash maculopapular, Grade ≥ 3",[1]; [3],0 Number of patients (%)
same,"Rash papular, All",[1]; [3],0 Number of patients (%)
same,"Rash papular, Grade ≥ 3",[1]; [3],0 Number of patients (%)
same,"Skin discolouration, All",[1]; [3],0 Number of patients (%)
same,"Skin discolouration, Grade ≥ 3",[1]; [3],0 Number of patients (%)
same,"Abdominal pain, All",[1]; [4],0 Number of patients (%)
same,"Abdominal pain, Grade ≥ 3",[1]; [4],0 Number of patients (%)
same,"Anaemia, All",[1]; [4],1 (10.0) Number of patients (%)
same,"Anaemia, Grade ≥ 3",[1]; [4],0 Number of patients (%)
same,"Any AE (causally related), All",[1]; [4],5 (50.0) Number of patients (%)
same,"Any AE (causally related), Grade ≥ 3",[1]; [4],4 (40.0) Number of patients (%)
same,"Any AE (irrespective of causality), All",[1]; [4],6 (60.0) Number of patients (%)
same,"Any AE (irrespective of causality), Grade ≥ 3",[1]; [4],4 (40.0) Number of patients (%)
same,"Diarrhoea, All",[1]; [4],3 (30.0) Number of patients (%)
same,"Diarrhoea, Grade ≥ 3",[1]; [4],2 (20.0) Number of patients (%)
same,"Hyperglycaemia, All",[1]; [4],1 (10.0) Number of patients (%)
same,"Hyperglycaemia, Grade ≥ 3",[1]; [4],1 (10.0) Number of patients (%)
same,"Hypokalaemia, All",[1]; [4],0 Number of patients (%)
same,"Hypokalaemia, Grade ≥ 3",[1]; [4],0 Number of patients (%)
same,"Pneumonia, All",[1]; [4],0 Number of patients (%)
same,"Pneumonia, Grade ≥ 3",[1]; [4],0 Number of patients (%)
same,"Rash macular, All",[1]; [4],1 (10.0) Number of patients (%)
same,"Rash macular, Grade ≥ 3",[1]; [4],1 (10.0) Number of patients (%)
same,"Rash maculopapular, All",[1]; [4],2 (20.0) Number of patients (%)
same,"Rash maculopapular, Grade ≥ 3",[1]; [4],2 (20.0) Number of patients (%)
same,"Rash papular, All",[1]; [4],1 (10.0) Number of patients (%)
same,"Rash papular, Grade ≥ 3",[1]; [4],1 (10.0) Number of patients (%)
same,"Skin discolouration, All",[1]; [4],0 Number of patients (%)
same,"Skin discolouration, Grade ≥ 3",[1]; [4],0 Number of patients (%)
same,Plasma glucose during the fasted period,[1]; up to 4 h post-dose,no indication of glucose elevation
same,Dose proportionality of plasma exposure,[2]; dose range 80–800 mg,approximately dose proportional
same,Dose excreted in urine as unchanged drug,[2]; patients,less than 10%
same,Terminal half life,[2]; patients,approximately 10 h

# Reference: publication PMC5907623 (Cancer Chemotherapy and Pharmacology, 2018)
